Series [1] is described as follows: In vivo CNS-PK study in monkey. The settings on record: female, cynomolgus monkey, CSF (relative to unbound plasma/blood), single PO dose of DZD1516 30 mg/kg. The procedure: The ability of DZD1516 and DZ2678 to cross the BBB in female Wistar Han rat and female Cynomolgus monkey was studied by assessing the free brain-to-plasma ratio (Kp,uu,brain) and CSF-to-free plasma ratio (Kp,uu,CSF). Total brain-to-blood ratio (Kp,brain) and CSF-to-blood ratio (Kp,CSF) were measured from six time points after oral administration. Free fractions of DZD1516 and DZ2678 in the biological matrix were determined by in vitro plasma and brain binding assay.
Kp,brain= AUCbrain/AUCblood. Kp,CSF was the average of the CSF-to-blood ratios at the evaluated time points. Kp,uu,brain= Kp,brain× fu,brain/fu,blood; Kpuu,CSF= Kp,CSF/fu,blood.
Three female Cynomolgus monkeys were administered with a single PO dose of DZD1516 at 30 mg/kg. The PO dosing formulation was a suspension in 0.5% HPMC E5 in water (w/v). Plasma and CSF samples were collected at 0.5, 1, 2, 4, 8, and 24 hrs post-dose. The concentrations of DZD1516 and metabolite DZ2678 in monkey plasma and CSF were determined by the validated LC-MS/MS method.

The target of series [2] is T1, c-RAF(h) (Homo sapiens, UniProt P04049).
T1 construct: purchased Eurofins UK Ltd (Dundee, UK)
T1 sequence (P04049 whole entry): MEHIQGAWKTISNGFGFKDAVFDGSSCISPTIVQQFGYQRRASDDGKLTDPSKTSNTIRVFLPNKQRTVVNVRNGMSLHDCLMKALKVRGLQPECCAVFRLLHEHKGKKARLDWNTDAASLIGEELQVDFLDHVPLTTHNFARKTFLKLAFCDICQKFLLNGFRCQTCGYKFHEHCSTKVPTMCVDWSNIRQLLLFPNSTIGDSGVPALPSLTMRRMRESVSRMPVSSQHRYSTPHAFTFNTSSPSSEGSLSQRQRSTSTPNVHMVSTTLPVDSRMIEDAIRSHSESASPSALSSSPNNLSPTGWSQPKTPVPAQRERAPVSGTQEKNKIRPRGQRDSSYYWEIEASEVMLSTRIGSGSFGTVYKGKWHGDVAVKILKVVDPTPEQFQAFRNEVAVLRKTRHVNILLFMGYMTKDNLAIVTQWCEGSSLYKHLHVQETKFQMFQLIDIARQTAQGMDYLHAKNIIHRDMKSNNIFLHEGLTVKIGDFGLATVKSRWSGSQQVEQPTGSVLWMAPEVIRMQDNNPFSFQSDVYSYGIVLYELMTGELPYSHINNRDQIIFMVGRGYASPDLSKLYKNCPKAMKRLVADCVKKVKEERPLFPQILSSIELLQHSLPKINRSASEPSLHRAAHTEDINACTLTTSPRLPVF
Briefly: Kinase panel assay (Eurofins). Format: biochemical. The procedure:
(§1) In vitro profiling of the 121-recombinant kinase panel was performed at Eurofins UK Ltd (Dundee, UK). In brief, recombinant kinases were incubated within an appropriate buffer containing peptide substrate and radiolabelled γ-^33P-ATP together with the presence or absence of the required compound concentration. The reaction was initiated by adding ATP/Mg^2+ mix. After incubation for 40 minutes at room temperature, the reaction was stopped by adding 3% phosphoric acid solution. A portion of the reaction mix was spotted onto P30 filtermat to trap peptide and washed three times for 5 minutes with phosphoric acid to remove non-specific γ-^33P-ATP. The substrate phosphorylation was then measured by scintillation counting, which determined the level of kinase activity inhibition compared to control reactions. Percentage inhibition data for each kinase was mapped to the kinome tree (www.kinhub.org).

Series [3] has as its target T2, Lck(h) activated (Homo sapiens, UniProt P06239).
T2 construct: purchased Eurofins UK Ltd (Dundee, UK)
As to the kind of experiment: Kinase panel assay (Eurofins). Format: biochemical. The procedure: as §1

In series [4] the target is T3, HER2(h) (Homo sapiens, UniProt P04626).
T3 construct: purchased Eurofins UK Ltd (Dundee, UK)
As to the kind of experiment: Kinase panel assay (Eurofins). Format: biochemical. The procedure:
as §1

In series [5] the target is T4, Blk(h) (Homo sapiens, UniProt P51451).
T4 construct: purchased Eurofins UK Ltd (Dundee, UK)
T4 sequence (P51451 whole entry): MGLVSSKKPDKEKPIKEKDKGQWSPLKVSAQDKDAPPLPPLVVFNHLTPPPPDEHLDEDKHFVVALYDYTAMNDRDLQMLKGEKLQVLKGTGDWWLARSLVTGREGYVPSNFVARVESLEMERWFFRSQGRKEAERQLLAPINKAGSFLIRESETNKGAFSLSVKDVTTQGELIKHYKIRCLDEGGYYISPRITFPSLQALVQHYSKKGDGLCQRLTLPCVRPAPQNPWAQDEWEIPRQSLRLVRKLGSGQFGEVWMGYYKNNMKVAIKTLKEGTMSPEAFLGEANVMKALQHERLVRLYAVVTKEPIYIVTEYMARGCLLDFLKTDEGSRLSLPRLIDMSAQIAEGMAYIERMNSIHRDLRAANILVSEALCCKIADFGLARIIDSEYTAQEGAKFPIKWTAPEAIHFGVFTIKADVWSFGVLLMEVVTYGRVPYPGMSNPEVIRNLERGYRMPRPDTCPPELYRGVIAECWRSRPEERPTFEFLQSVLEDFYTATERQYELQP
As to the kind of experiment: Kinase panel assay (Eurofins). Format: biochemical. The procedure:
as §1

Series [6] addresses T5, Lck(h) (Homo sapiens, UniProt P06239).
T5 construct: purchased Eurofins UK Ltd (Dundee, UK)
Briefly: Kinase panel assay (Eurofins). Format: biochemical. The procedure: as §1

The target in series [7] is T6, Lyn(h) (Homo sapiens, UniProt P07948).
T6 construct: purchased Eurofins UK Ltd (Dundee, UK)
As to the kind of experiment: Kinase panel assay (Eurofins). Format: biochemical. The procedure:
as §1

Series [8] deals with T7, TrkA(h) (Homo sapiens, UniProt P04629).
T7 construct: purchased Eurofins UK Ltd (Dundee, UK)
As to the kind of experiment: Kinase panel assay (Eurofins). Format: biochemical. The procedure:
as §1

In series [9] the target is T8, EGFR(h) (Homo sapiens, UniProt P00533).
T8 construct: purchased Eurofins UK Ltd (Dundee, UK)
Briefly: Kinase panel assay (Eurofins). Format: biochemical. The procedure:
as §1

For series [10], the target named is T9, Fms(h) (Homo sapiens, UniProt P07333).
T9 construct: purchased Eurofins UK Ltd (Dundee, UK)
T9 sequence (P07333 20-972): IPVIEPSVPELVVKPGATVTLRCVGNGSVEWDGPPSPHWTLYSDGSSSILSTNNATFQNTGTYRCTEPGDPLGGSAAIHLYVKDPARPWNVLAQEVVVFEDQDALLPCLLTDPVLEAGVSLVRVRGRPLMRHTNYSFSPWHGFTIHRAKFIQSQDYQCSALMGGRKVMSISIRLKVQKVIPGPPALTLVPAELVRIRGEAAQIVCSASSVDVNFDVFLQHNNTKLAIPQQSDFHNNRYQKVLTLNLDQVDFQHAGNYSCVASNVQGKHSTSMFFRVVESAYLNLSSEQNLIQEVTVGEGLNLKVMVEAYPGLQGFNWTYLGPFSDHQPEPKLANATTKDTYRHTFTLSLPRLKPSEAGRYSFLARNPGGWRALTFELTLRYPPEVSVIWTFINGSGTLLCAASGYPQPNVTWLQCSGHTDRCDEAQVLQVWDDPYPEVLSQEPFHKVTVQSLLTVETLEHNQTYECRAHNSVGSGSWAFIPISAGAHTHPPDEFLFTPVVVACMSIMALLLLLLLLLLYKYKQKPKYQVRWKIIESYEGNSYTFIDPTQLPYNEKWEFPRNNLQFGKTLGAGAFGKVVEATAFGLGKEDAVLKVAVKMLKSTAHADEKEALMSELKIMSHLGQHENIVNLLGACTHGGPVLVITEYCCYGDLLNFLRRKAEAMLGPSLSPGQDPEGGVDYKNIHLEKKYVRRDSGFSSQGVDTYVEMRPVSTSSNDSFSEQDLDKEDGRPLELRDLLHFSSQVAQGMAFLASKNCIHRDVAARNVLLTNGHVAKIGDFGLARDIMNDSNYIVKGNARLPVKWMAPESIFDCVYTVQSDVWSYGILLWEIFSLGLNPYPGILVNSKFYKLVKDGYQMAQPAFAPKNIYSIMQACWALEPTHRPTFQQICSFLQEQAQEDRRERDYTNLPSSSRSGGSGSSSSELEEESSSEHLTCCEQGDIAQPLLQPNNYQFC
Briefly: Kinase panel assay (Eurofins). Format: biochemical. The procedure:
as §1

Series [11] has as its target T10, EGFR(T790M,L858R)(h) (Homo sapiens, UniProt P00533, L858R/T790M).
T10 construct: purchased Eurofins UK Ltd (Dundee, UK)
Briefly: Kinase panel assay (Eurofins). Format: biochemical. The procedure: as §1

Series [12] concerns the target T11, ErbB4(h) (Homo sapiens, UniProt Q15303).
T11 construct: purchased Eurofins UK Ltd (Dundee, UK)
As to the kind of experiment: Kinase panel assay (Eurofins). Format: biochemical. The procedure:
as §1

For series [13], the target named is T12, Met(h) (Homo sapiens, UniProt P08581).
T12 construct: purchased Eurofins UK Ltd (Dundee, UK)
T12 sequence (P08581 25-1390): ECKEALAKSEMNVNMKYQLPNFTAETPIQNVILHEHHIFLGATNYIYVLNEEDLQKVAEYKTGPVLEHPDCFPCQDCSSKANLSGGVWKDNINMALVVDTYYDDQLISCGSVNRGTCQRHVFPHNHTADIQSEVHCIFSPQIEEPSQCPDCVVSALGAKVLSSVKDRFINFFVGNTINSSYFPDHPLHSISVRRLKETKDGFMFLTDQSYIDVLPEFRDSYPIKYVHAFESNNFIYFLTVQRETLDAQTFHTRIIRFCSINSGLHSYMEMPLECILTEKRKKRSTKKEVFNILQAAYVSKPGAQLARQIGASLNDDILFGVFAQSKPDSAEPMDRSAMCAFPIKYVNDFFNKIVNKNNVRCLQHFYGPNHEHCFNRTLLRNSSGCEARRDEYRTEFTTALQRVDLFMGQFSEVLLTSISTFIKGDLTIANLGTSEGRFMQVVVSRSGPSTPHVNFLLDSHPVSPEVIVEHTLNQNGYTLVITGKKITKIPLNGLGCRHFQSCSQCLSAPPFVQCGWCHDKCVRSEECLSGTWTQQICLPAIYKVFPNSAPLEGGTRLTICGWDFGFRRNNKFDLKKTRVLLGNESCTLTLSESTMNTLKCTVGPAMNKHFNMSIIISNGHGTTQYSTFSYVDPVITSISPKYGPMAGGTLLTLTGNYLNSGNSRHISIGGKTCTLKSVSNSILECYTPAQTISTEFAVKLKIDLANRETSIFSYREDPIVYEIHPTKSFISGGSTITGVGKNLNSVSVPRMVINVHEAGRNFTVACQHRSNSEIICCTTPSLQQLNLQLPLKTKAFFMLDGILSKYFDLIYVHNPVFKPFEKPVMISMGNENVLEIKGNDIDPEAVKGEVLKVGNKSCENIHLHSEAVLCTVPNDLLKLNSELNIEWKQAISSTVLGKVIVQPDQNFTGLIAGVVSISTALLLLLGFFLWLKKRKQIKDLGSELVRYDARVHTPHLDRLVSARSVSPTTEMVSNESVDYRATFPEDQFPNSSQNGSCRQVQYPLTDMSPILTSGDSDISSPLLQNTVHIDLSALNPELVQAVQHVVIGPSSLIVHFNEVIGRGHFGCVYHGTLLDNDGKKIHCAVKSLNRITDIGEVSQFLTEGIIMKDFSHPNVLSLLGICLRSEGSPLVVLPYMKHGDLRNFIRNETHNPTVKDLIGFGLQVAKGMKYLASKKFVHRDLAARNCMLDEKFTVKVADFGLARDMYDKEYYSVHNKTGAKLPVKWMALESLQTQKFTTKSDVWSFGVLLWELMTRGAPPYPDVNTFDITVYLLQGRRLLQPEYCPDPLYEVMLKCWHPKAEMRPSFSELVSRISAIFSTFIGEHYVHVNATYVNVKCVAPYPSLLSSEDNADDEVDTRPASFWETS
Briefly: Kinase panel assay (Eurofins). Format: biochemical. The procedure:
as §1

In series [14] the test system is A431 cells. Briefly: Cell proliferation assay (CellTiter-Glo), A431. Format: cell-based. The settings on record: Homo sapiens, A-431; A431, 72 hrs. The procedure: BT474C1-Luci Mono1 cells were seeded in 384-well plates at 1500 cells/well in DMEM medium containing 10% FBS and 1 mM Oxaloacetic acid (OAA). A431 cells were seeded in 384-well plates at 1,000 cells/well in DMEM medium containing 10% FBS. After overnight incubation, cells were treated with compounds at various concentrations for 3 days. Then cell viability was measured using a CellTiter-Glo Luminescent Cell Viability Assay from Promega Corp. according to the manufacturer's instructions.

Series [15] has as its system BT474C1-Luci Mono1 LM xenograft. As to the kind of experiment: LM (leptomeningeal metastasis) BT474C1-Luci Mono1 xenograft model. Format: in vivo, nude mice. The procedure:
The LM model was generated by implanting 10 µl of cell suspension containing 1 × 10^4 BT474C1-Luci Mono1 cells through cisterna magna into each mouse under anaesthesia following similar procedures as described in the literature (31). 17β- ESTRADIOL (90-day release 0.36 mg/pellet) were injected subcutaneously 24 hrs before cell inoculation. Under anaesthesia, mice were placed in the prone position with their neck draped over a cylinder. The head was immobilized with the thumb and mid-finger, with the index finger palpating the space between the occiput and C1. BT474c1-Luci Mono1 cell suspension at 10 µl containing 0.01 million cells were injected intracisternally. When the bioluminescent signal reached > 5 × 10^6 photon/s, animals were randomized for treatment. […]
In both BM and LM models, the day of randomization was defined as Day 0 and the treatment was started one day after randomization. The bioluminescence signals and body weight of the mice were measured once weekly. Relative bioluminescence intensity on a specific day was calculated by dividing the bioluminescence intensity on that day by the bioluminescence intensity on Day 0. The tumour growth inhibition (TGI) was calculated by formula: TGI (%) = (1-(relative bioluminescence intensity of treated group)/(relative bioluminescence intensity of control group)) x 100.Establishment of SC model

Series [16] has as its target T13, pHER2 (Homo sapiens, UniProt P04626).
T13 construct: from tissue; host or cells: subcutaneous BT474C1-Luci Mono1 xenograft tumour tissue from nude mice
As to the kind of experiment: pHER2 IHC (PD) in SC xenograft tumor tissue after single dose. Format: in vivo, mice. The procedure:
The subcutaneous xenograft tissues were collected from mice after a single dose of vehicle or DZD1516. Samples were snap-frozen for analysis. Tissues from animals were analyzed at each time point IHC was performed on 5 μm frozen sections using a Ventana discovery XT automation (Roche) for pHER2 (Catalog #) IHC staining. The stained IHC slides were firstly reviewed and interpreted by a qualified pathologist and then quantified by the Imagescope software of Aperio system. The “H” score quantified by Aperio system will be corrected by a pathologist. Statistical analysis was performed by t-test.

Series [17] in a line: Human hepatocyte intrinsic clearance. Format: in vitro ADME. The settings on record: human hepatocytes; read-out: Human Heps Clint.

T13 sequence (P04626 23-1255): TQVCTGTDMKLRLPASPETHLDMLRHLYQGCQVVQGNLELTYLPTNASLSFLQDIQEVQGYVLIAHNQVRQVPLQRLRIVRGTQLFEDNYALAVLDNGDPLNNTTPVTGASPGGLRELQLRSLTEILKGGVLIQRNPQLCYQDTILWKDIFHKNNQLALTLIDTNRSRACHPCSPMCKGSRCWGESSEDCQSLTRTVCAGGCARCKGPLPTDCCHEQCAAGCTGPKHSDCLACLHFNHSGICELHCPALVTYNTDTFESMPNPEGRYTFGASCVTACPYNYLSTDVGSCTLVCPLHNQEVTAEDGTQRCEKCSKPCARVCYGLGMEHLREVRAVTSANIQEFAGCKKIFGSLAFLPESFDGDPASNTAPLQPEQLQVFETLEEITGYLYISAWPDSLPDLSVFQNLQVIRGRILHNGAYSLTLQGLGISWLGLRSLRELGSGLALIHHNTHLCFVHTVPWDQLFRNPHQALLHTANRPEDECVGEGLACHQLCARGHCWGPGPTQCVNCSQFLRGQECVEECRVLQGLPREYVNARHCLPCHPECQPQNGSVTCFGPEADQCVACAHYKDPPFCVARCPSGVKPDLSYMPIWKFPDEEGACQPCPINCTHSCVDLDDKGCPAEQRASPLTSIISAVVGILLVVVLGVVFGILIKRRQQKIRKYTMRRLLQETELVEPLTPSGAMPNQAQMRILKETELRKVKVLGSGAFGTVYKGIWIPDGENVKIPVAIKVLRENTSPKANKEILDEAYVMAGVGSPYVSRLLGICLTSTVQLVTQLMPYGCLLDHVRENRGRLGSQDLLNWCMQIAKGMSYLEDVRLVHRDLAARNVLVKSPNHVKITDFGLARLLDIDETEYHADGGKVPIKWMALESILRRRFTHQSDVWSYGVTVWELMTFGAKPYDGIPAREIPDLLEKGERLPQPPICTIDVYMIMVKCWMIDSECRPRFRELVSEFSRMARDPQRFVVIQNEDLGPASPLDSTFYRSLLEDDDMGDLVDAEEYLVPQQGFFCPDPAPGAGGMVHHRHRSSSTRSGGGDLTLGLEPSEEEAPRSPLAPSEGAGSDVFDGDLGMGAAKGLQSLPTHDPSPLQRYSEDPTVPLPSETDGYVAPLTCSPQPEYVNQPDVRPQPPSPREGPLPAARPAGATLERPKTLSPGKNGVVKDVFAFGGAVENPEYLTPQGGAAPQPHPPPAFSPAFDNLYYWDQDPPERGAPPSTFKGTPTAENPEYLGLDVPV

Turning to `COc1cc(O[C@H]2CCN(C)CC2(F)F)c2c(Nc3ccc(Oc4ccn5ncnc5c4)c(C)c3)ncnc2c1` [DZD1516], the Kp uu in [1] amounted to 4.1. Also, the IC50 in series [2] is 1.04 µM; in series [3] it was 0.18 µM; in [4], 0.016 µM; in [5], 2.67 µM; in [6] it was 0.433 µM; in [7] it was 2.3 µM. Moreover, the 50% inhibitory concentration (IC50) in series [8] turned out to be 1.29 µM; in [9] it was 0.092 µM; in series [10], 1.07 µM; in series [11], 0.244 µM; in [12] it was 0.052 µM; in [13] it was 1.09 µM. This compound also gave a GI50 in series [14] of 8.87 µM. The TGI in series [15] (100 mg/kg twice daily) is given as 57%; in [15] (150 mg/kg twice daily), 81%. In addition, in [16] (mouse, single dose 50 mg/kg, 0.25 h), the inhibition at 50 mg/kg was above 94%. 150 mg/kg produced 89% inhibition in [16] (mouse, single dose 150 mg/kg). The “duration of pHER2 inhibition” value in series [16] (single dose 50 mg/kg) was found to be 6 h; in series [16] (single dose 150 mg/kg) it was 24 h. The hepatocyte CLint in [17] was 12 µL/min/1e6 cells.

Values taken from paper PMC10327353 (Breast Cancer Research : BCR, 2023).
